Test results published in US4638000A, “Condensed seven-membered ring compounds, their production and use” (Takeda Chemical Industries, Ltd., priority 1984, dated 1987).
Structures can show the parent of a compound that is named as a salt.

Experiments:
[1] = target: T1, Angiotensin I Converting Enzyme (ACE) (Oryctolagus cuniculus, UniProt P12822); test: Inhibition of Angiotensin I Converting Enzyme (ACE), HHL substrate, modified Cushman method; format: biochemical; conditions: compound concentration 0.1 μM; substrate hippuryl-L-histidyl-L-leucine; 37° C., 1 hour; read-out: ACE inhibitory activity (%)
T1 sequence (P12822 34-1310): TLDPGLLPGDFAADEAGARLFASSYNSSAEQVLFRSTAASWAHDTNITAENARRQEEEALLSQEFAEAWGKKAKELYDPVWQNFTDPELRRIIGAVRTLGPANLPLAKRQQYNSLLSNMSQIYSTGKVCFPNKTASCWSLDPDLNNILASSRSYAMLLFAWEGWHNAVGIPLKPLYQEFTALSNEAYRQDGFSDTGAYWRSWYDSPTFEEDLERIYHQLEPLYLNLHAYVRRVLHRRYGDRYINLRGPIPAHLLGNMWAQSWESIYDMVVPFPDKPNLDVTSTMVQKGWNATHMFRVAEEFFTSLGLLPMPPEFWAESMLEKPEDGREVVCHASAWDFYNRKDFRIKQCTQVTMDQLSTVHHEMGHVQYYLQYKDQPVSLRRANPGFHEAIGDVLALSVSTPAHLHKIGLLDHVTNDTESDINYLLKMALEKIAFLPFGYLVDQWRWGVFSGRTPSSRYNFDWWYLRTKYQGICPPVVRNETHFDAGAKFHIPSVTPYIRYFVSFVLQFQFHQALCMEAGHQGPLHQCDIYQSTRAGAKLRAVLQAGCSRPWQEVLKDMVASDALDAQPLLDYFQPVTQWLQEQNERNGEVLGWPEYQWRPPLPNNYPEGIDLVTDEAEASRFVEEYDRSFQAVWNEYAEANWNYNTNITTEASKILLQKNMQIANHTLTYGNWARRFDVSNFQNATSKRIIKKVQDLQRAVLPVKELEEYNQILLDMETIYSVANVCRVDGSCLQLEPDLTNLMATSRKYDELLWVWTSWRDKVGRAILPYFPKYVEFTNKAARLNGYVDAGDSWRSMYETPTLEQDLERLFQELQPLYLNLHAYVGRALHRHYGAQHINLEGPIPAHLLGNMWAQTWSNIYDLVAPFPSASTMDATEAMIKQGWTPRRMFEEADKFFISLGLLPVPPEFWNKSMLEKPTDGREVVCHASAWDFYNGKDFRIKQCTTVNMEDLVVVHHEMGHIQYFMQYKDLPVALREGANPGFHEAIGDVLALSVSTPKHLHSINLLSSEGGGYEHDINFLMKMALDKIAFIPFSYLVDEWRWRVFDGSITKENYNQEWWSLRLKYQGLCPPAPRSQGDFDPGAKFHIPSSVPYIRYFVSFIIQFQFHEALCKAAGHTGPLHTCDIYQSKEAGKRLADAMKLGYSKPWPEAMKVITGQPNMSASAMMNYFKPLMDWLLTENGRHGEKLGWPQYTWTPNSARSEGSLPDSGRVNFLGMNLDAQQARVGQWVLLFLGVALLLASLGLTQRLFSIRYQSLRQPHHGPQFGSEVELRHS
Description: The experiment was conducted in accordance with a modification of the method described by Cushman et al. (Biochemical Pharmacology, Vol. 20, pp. 1637, 1971). Thus, using hippuryl-L-histidyl-L-leucine (HHL) as the substrate, the ACE inhibitory activity was determined in terms of percent inhibition on the amount of hippuric acid produced by ACE when the compound of the present invention was added. A solution of the compound of the present invention in 0.02 to 5% dimethylsulfoxide-100 mM borate-HCl buffer solution (pH 8.3, containing 300 mM sodium chloride) was added to 100 μl of ACE (protein concentration, 20 mg/ml) and 100 μl of 1.25 mM HHL. In this experiment, a borate-HCl buffer solution containing dimethylsulfoxide at a concentration equal to that of the test solution was used as a control. After warming the solution at 37° C. for 1 hour, 150 μl of 1N hydrochloric acid was added to the solution to terminate the reaction. After 0.8 ml of ethyl acetate was added, the solution was centrifuged at 11,500 rpm for 2 minutes. A 0.5 ml aliquot was separated from the ethyl acetate layer and dried at a temperature of not more than 40° C. under nitrogen gas streams. The residue was mixed thoroughly with 4.5 ml of distilled water, and the mixture was subjected to colorimetry at a wavelength of 228 nm.

[2] = tested on: hypertensive reaction by angiotensin I; test: Effect against hypertensive activity of angiotensin I in rats; format: in vivo; conditions: 300 μg/kg i.v., rat, corrected by angiotensin II response
Description: Male rats (Sprague-Awley) weighing 300 to 400 g which were fed under free access to drinking water and feed were used as experimental animals. The rats were anesthetized with intraperitoneal administration of pentobarbital sodium (50 mg/kg) on the day before the test day, and a polyethylene tube was inserted into each of the femoral artery for measurement of blood pressure and the femoral vein for injection of angiotensin I and II. And the tubes were fixed.
On the test day, an average blood pressure in the control phase was measured by an electric hemodynamometer (MPU-0.5-290-0-III model, manufactured by NEC-Sanei, Japan) and recorded by a polygraph (NEC-Sanei, Tupe 365, or Nippon Kohden Type RM-45), and thereafter, angiotensin I and then angiotensin II were injected through the femoral vein at a dose of 300 ng/kg and 100 ng/kg, respectively, to measure the hypertensive activity. Then, 300 μg/kg of the compound of the present invention was administered intravenously as an isotonic saline solution, and 5, 10, 30, 60, 90 and 120 minutes after the administration, angiotensin I and II were injected repeatedly to trace hypertensive reactions. In calculating the percent inhibition to the hypertensive activity of angiotensin I, the percent inhibitory value was corrected based on the variation with time in the hypertensive reaction by angiotensin II.

[3] = 5 min. after the administration
[4] = 10 min. after the administration
[5] = 30 min. after the administration
[6] = 60 min. after the administration
[7] = 90 min. after the administration
[8] = 120 min. after the administration

Structure (SMILES) | inhibition at 0.1 µM [1] [%] | Inhibition against hypertensive reaction by angiotension I, % [2, 3] [%] | Inhibition against hypertensive reaction by angiotension I, % [2, 4] [%] | Inhibition against hypertensive reaction by angiotension I, % [2, 5] [%] | Inhibition against hypertensive reaction by angiotension I, % [2, 6] [%] | Inhibition against hypertensive reaction by angiotension I, % [2, 7] [%] | Inhibition against hypertensive reaction by angiotension I, % [2, 8] [%]
O=C(O)CN1C(=O)[C@@H](N[C@@H](CCC2CCNCC2)C(=O)O)CSc2ccccc21 [Example 73, 3(R)-[1(S)-carboxy-3-(4-piperidyl)propyl]amino-4-oxo-2,3,4,5-tetrahydro-1,5-benzothiazepine-5-acetic acid] | 92 | – | – | – | – | – | –
O=C(O)CN1C(=O)[C@@H](N[C@@H](CCC2CCOCC2)C(=O)O)CSc2ccccc21 [Example 74] | 94 | – | – | – | – | – | –
O=C(O)CN1C(=O)[C@@H](N[C@@H](CCC2CCSCC2)C(=O)O)CSc2ccccc21 [Example 75] | 89 | – | – | – | – | – | –
O=C(O)CN1C(=O)[C@@H](N[C@@H](CCCCN2CCCCC2)C(=O)O)CSc2ccccc21 [Example 82, 3(R)-[1(S)-carboxy-5-piperidinopentyl]amino-4-oxo-2,3,4,5-tetrahydro-1,5-benzothiazepine-5-acetic acid] | 92 | – | – | – | – | – | –
CCOC(=O)C(CCCC1CCNCC1)NC1CSc2ccccc2N(CC(=O)O)C1=O [Example 90, 3(R)-[1(S)-ethoxycarbonyl-4-(4-piperidyl)butyl]-amino-4-oxo-2,3,4,5-tetrahydro-1,5-berzothiazepine-5-acetic acid.dihydrobromide] | – | 100 | 100 | 100 | 90 | 67 | 62
O=C(O)CN1C(=O)[C@@H](N[C@@H](CCCC2CCNCC2)C(=O)O)CSc2ccccc21 [Example 91, 3(R)-[1(S)-carboxy-4-(4-piperidyl)butyl]amino-4-oxo-2,3,4,5-tetrahydro-1,5-benzothiazepine-5-acetic acid] | 92 | – | – | – | – | – | –
O=C(O)CN1C(=O)[C@@H](N[C@@H](CCCCC2CCNCC2)C(=O)O)CSc2ccccc21 [Example 95, 3(R)-[1(S)-carboxy-5-(4-piperidyl)pentyl]amino-4-oxo-2,3,4,5-tetrahydro-1,5-benzothiazepine-5-acetic acid] | 98 | 96 | 94 | 99 | 89 | 96 | 91
O=C(O)CN1C(=O)[C@@H](N[C@@H](CCCCCC2CCNCC2)C(=O)O)CSc2ccccc21 [Example 98, 3(R)-[1(S)-carboxy-6-(4-piperidyl)hexyl]amino-4-oxo-2,3,4,5-tetrahydro-1,5-benzothiazepine-5-acetic acid] | 98 | 100 | 100 | 100 | 100 | 95 | 79
O=C(O)CN1C(=O)[C@@H](N[C@@H](CCCCCCC2CCNCC2)C(=O)O)CSc2ccccc21 [Example 100, 3(R)-[1(S)-carboxy-7-(4-piperidyl)heptyl]amino-4-oxo-2,3,4,5-tetrahydro-1,5-benzothiazepine-5-acetic acid] | 98 | – | – | – | – | – | –
